Values after ≈ are worked out from the molar mass of the structure shown.
Key:
S. aureus ATCC 29213 = assay: Minimum inhibitory concentration (MIC) assay, broth microdilution, MSSA; format: cell-based; details: Staphylococcus aureus, Table I
Description: (§1) The antimicrobial activity of the compounds of the invention may be evaluated by a number of methods, including the following visual minimum inhibitory concentration (MIC) assay. This assay determines the minimum concentration of compound required to inhibit growth of a bacterial strain.
(§2) Whole-cell antibacterial activity is determined by broth microdilution using conditions recommended by the NCCLS (see National Committee for Clinical Laboratory Standards. 2001. Performance standards for antimicrobial susceptibility testing: 11th informational supplement. Vol. 21, no. 1, M100-S11. National Committee for Clinical Laboratory Standards, Wayne, Pa.). Test compounds are dissolved in DMSO and diluted 1:50 in Mueller-Hinton II broth (Becton-Dickinson) to produce a 256 μg/ml stock solution. In a 96-well microtiter plate, the compound solution is serially two-fold diluted in Mueller-Hinton II broth. After the compounds are diluted, a 50 μl aliquot of the test organism (˜1×10^6 cfu/mL) is added to each well of the microtiter plate. The final test concentrations ranges from 0.125-128 μg/mL. Inoculated plates are incubated in ambient air at 37° C. for 18 to 24 hours. The organisms selected for testing included laboratory strains S. aureus ATCC 29213 and E. coli ATCC 25922 (strains purchased from American Type Culture Collection, Manassas, Va.) m, S. aureus FQR700699, and Paeruginosa 27853. The minimum inhibitory concentration (MIC) is determined as the lowest concentration of compound that inhibited visible growth of the test organism.

[1] = tested on: fluoroquinolone-resistant S. aureus ATCC 700699; assay: Minimum inhibitory concentration (MIC) assay, broth microdilution, MRSA; format: cell-based; details: Staphylococcus aureus; fluoroquinolone-resistant S. aureus ATCC 700699; Table I; read-out: MRSA MIC
Description: as §1, §2

Row | SMILES | MIC (S. aureus ATCC 29213) | MIC [1]
1 | COc1c(N2CC[C@@H](C(C)(C)N)C2)c(F)cc2c(=O)c3c(O)c(C#N)sc3n(C3CC3)c12 [Cmp 10, (R)-7-(3-(2-aminopropan-2-yl)pyrrolidin-1-yl)-9-cyclopropyl-6-fluoro-3-hydroxyl-8-methoxy-4-oxo-4,9-dihydrothieno [2,3-b]quinoline-2-carbonitrile] | 0.02 µg/mL (≈ 0.0438 µM) | 0.094 µg/mL (≈ 0.206 µM)
2 | CCN[C@@H](C)[C@@H]1CCN(c2c(F)cc3c(=O)c4c(O)c(C#N)sc4n(C4CC4)c3c2OC)C1 [Cmp 30, 9-cyclopropyl-7-((R)-3-((S)-1-(ethylamino)ethyl)pyrrolidin-1-yl)-6-fluoro-3-hydroxyl-8-methoxy-4-oxo-4,9-dihydrothieno [2,3-b]quinoline-2-carbonitrile] | 0.03 µg/mL (≈ 0.0638 µM) | 0.13 µg/mL (≈ 0.276 µM)
3 | COc1c(N2CCNCC2)c(F)cc2c(=O)c3c(O)c(C(N)=O)sc3n(C3CC3)c12 [Cmp 25, 9-cyclopropyl-6-fluoro-3-hydroxyl-8-methoxy-4-oxo-7-(piperazin-1-yl)-4,9-dihydrothieno[2,3-b]quinoline-2-carboxamide] | 0.25 µg/mL (≈ 0.578 µM) | 2 µg/mL (≈ 4.62 µM)
4 | COc1c(N2CCCC(CN)C2)c(F)cc2c(=O)c3c(O)c(C(N)=O)sc3n(C3CC3)c12 (stereo not drawn) [Cmp 65, 7-(3-(aminomethyl)piperidin-1-yl)-9-cyclopropyl-6-fluoro-3-hydroxyl-8-methoxy-4-oxo-4,9-dihydrothieno [2,3-b]quinoline-2-carboxamide] | 0.5 µg/mL (≈ 1.09 µM) | 2 µg/mL (≈ 4.34 µM)
5 | COc1c(N2CCNCC2)c(F)cc2c(=O)c3c(O)c(C(=O)C(C)(C)C)sc3n(C3CC3)c12 [Cmp 12, 9-cyclopropyl-6-fluoro-3-hydroxyl-8-methoxy-7-(piperazin-1-yl)-2-pivaloylthieno[2,3-b]quinolin 4(9H)-one] | 8 µg/mL (≈ 16.9 µM) | 8 µg/mL (≈ 16.9 µM)
6 | COc1c(N2CCNCC2)c(F)cc2c(=O)c3c(O)c(C(=O)C(F)(F)F)sc3n(C3CC3)c12 [Cmp 20, 9-cyclopropyl-6-fluoro-3-hydroxyl-8-methoxy-7-(piperazin-1-yl)-2-(2,2,2-trifluoroacetyl)thieno[2,3-b]quinolin-4(9H)-one] | 64 µg/mL (≈ 132 µM) | > 64 µg/mL
7 | CN(C)c1ccc2c(=O)c3c(O)c(C#N)sc3n(C3CC3)c2c1OC(F)F [Cmp 17, 9-cyclopropyl-8-(difluoromethoxy)-7-(dimethylamino)-3-hydroxyl-4-oxo-4,9-dihydrothieno[2,3-b]quinoline-2-carbonitrile] | 4 µg/mL (≈ 10.2 µM) | 64 µg/mL (≈ 164 µM)
8 | CCC(=O)c1sc2c(c1O)c(=O)c1cc(F)c(N3CC[C@@H](C(C)(C)N)C3)c(OC)c1n2C1CC1 [Cmp 62, (R)-7-(3-(2-aminopropan-2-yl)pyrrolidin-1-yl)-9-cyclopropyl-6-fluoro-3-hydroxyl-8-methoxy-2-propionylthieno [2,3-b]quinolin-4(9H)-one] | 0.5 µg/mL (≈ 1.03 µM) | 1 µg/mL (≈ 2.05 µM)
9 | COc1c(N2CC[C@@H](C(C)(C)N)C2)c(F)cc2c(=O)c3c(O)csc3n(C3CC3)c12 [Cmp 6, (R)-7-(3-(2-aminopropan-2-yl)pyrrolidin-1-yl)-9-cyclopropyl-6-fluoro-3-hydroxyl-8-methoxythieno[2,3-b]quinolin-4(9H)-one] | 2 µg/mL (≈ 4.63 µM) | 32 µg/mL (≈ 74.2 µM)
10 | COc1c(N2CC[C@@H](C(C)(C)N)C2)c(F)cc2c(=O)c3c(O)c([N+](=O)[O-])sc3n(C3CC3)c12 [Cmp 13, (R)-7-(3-(2-aminopropan-2-yl)pyrrolidin-1-yl)-9-cyclopropyl-6-fluoro-3-hydroxyl-8-methoxy-2-nitrothieno[2,3-b] quinolin-4(9H)-one] | 8 µg/mL (≈ 16.8 µM) | 32 µg/mL (≈ 67.2 µM)
11 | COc1c(N2CC[C@@H](C(C)(C)NCCC#N)C2)c(F)cc2c(=O)c3c(n(C4CC4)c12)SC(C#N)C3=O (stereo partly drawn) [Cmp 49, 7-((R)-3-(2-(2-cyanoethylamino)propan-2-yl)pyrrolidin-1-yl)-9-cyclopropyl-6-fluoro-8-methoxy-3,4-dioxo-2,3,4,9-tetrahydrothieno[2,3-b]quinoline-2-carbonitrile] | 0.06 µg/mL (≈ 0.118 µM) | 0.5 µg/mL (≈ 0.981 µM)
12 | COc1c(-c2ccnc(C)c2)c(F)cc2c(=O)c3c(O)c(C#N)sc3n(C3CC3)c12 [Cmp 4, 9-cyclopropyl-6-fluoro-3-hydroxyl-8-methoxy-7-(2-methylpyridin-4-yl)-4-oxo-4,9-dihydrothieno[2,3-b]quinoline-2-carbonitrile] | 0.02 µg/mL (≈ 0.0475 µM) | 0.13 µg/mL (≈ 0.308 µM)
13 | N#Cc1sc2c(c1O)c(=O)c1cc(F)c(N3CCNCC3)cc1n2C1CC1 [Cmp 21, 9-cyclopropyl-6-fluoro-3-hydroxyl-4-oxo-7-(piperazin-1-yl)-4,9-dihydrothieno[2,3-b]quinoline-2-carbonitrile] | 0.13 µg/mL (≈ 0.338 µM) | 2 µg/mL (≈ 5.2 µM)
14 | COc1c(N2CC[C@@H](CN)C2)c(F)cc2c(=O)c3c(O)c(C(N)=O)sc3n(C3CC3)c12 [Cmp 61, (S)-7-(3-(aminomethyl)pyrrolidin-1-yl)-9-cyclopropyl-6-fluoro-3-hydroxyl-8-methoxy-4-oxo-4,9-dihydrothieno [2,3-b]quinoline-2-carboxamide] | 0.13 µg/mL (≈ 0.291 µM) | 0.5 µg/mL (≈ 1.12 µM)
15 | COc1c(N2CCC(C(N)=O)CC2)c(F)cc2c(=O)c3c(n(C4CC4)c12)SC(C#N)C3=O (stereo not drawn) [Cmp 45, 1-(2-cyano-9-cyclopropyl-6-fluoro-8-methoxy-3,4-dioxo-2,3,4,9-tetrahydrothieno[2,3-b]quinolin-7-yl)piperidine-4-carboxamide] | 0.03 µg/mL (≈ 0.0657 µM) | 0.5 µg/mL (≈ 1.1 µM)
16 | COc1c(C2=CCNCC2)c(F)cc2c(=O)c3c(O)c(C#N)sc3n(C3CC3)c12 [Cmp 40] | 0.5 µg/mL (≈ 1.22 µM) | 4 µg/mL (≈ 9.72 µM)
17 | COc1c(N2CCC[C@H]2C(N)=O)c(F)cc2c(=O)c3c(n(C4CC4)c12)SC(C#N)C3=O (stereo partly drawn) [Cmp 46, (2S)-1-(2-cyano-9-cyclopropyl-6-fluoro-8-methoxy-3,4-dioxo-2,3,4,9-tetrahydrothieno[2,3-b]quinolin-7-yl)pyrrolidine-2-carboxamide] | 4 µg/mL (≈ 9.04 µM) | 64 µg/mL (≈ 145 µM)
18 | COc1c(N2CC[C@@H]([C@H](C)NCCF)C2)c(F)cc2c(=O)c3c(O)c(C#N)sc3n(C3CC3)c12 [Cmp 1, 9-cyclopropyl-6-fluoro-7-((R)-3-((S)-1-(2-fluoroethylamino)ethyl)pyrrolidin-1-yl)-3-hydroxyl-8-methoxy-4-oxo-4,9-dihydrothieno[2,3-b]quinoline-2-carbonitrile] | 0.02 µg/mL (≈ 0.0409 µM) | 0.13 µg/mL (≈ 0.266 µM)
19 | COc1c(N2CCNCC2)ccc2c(=O)c3c(O)c(C#N)sc3n(C3CC3)c12 [Cmp 19, 9-cyclopropyl-3-hydroxyl-8-methoxy-4-oxo-7-(piperazin-1-yl)-4,9-dihydrothieno[2,3-b]quinoline-2-carbonitrile] | 0.25 µg/mL (≈ 0.631 µM) | 4 µg/mL (≈ 10.1 µM)
20 | N#Cc1sc2c(c1O)c(=O)c1ccc(N3CCNCC3)c(OC(F)F)c1n2C1CC1 [Cmp 16, 9-cyclopropyl-8-(difluoromethoxy)-3-hydroxyl-4-oxo-7-(piperazin-l-yl)-4,9-dihydrothieno[2,3-b]quinoline-2-carbonitrile] | 4 µg/mL (≈ 9.25 µM) | 64 µg/mL (≈ 148 µM)
21 | CN[C@@H](C)[C@@H]1CCN(c2c(F)cc3c(=O)c4c(O)c(C#N)sc4n(C4CC4)c3c2OC)C1 [Cmp 31, 9-cyclopropyl-6-fluoro-3-hydroxyl-8-methoxy-7-((R)-3-((S)-1-(methylamino)ethyl)pyrrolidin-1-yl)-4-oxo-4,9-dihydrothieno [2,3-b]quinoline-2-carbonitrile] | 0.03 µg/mL (≈ 0.0657 µM) | 0.25 µg/mL (≈ 0.548 µM)
22 | COc1c(-c2ccnc(N3CCNCC3)c2)c(F)cc2c(=O)c3c(n(C4CC4)c12)SC(C#N)C3=O (stereo not drawn) [Cmp 50, 9-cyclopropyl-6-fluoro-8-methoxy-3,4-dioxo-7-(2-(piperazin-1-yl)pyridin-4-yl)-2,3,4,9-tetrahydrothieno [2,3-b]quinoline-2-carbonitrile] | 0.06 µg/mL (≈ 0.122 µM) | 1 µg/mL (≈ 2.03 µM)
23 | COc1c(N2CCNCC2)c(F)cc2c(=O)c3c(O)c(-c4ccc(F)c(F)c4)sc3n(C3CC3)c12 [Cmp 15, 9-cyclopropyl-2-(3,4-difluorophenyl)-6-fluoro-3-hydroxyl-8-methoxy-7-(piperazin-1-yl)thieno[2,3-b]quinolin-4(9H)-one] | 8 µg/mL (≈ 16 µM) | 4 µg/mL (≈ 7.98 µM)
24 | COc1c(N2CC(O)C2)c(F)cc2c(=O)c3c(O)c(C#N)sc3n(C3CC3)c12 [Cmp 24, 9-cyclopropyl-6-fluoro-3-hydroxyl-7-(3-hydroxylazetidin-1-yl)-8-methoxy-4-oxo-4,9-dihydrothieno[2,3-b]quinoline-2-carbonitrile] | 0.06 µg/mL (≈ 0.149 µM) | 1 µg/mL (≈ 2.49 µM)
25 | COc1c(N2CCCC(C(N)=O)C2)c(F)cc2c(=O)c3c(O)c(C#N)sc3n(C3CC3)c12 (stereo not drawn) [Cmp 37, 1-(2-cyano-9-cyclopropyl-6-fluoro-3-hydroxyl-8-methoxy-4-oxo-4,9-dihydrothieno[2,3-b]quinolin-7-yl)piperidine-3-carboxamide] | 0.03 µg/mL (≈ 0.0657 µM) | 0.25 µg/mL (≈ 0.548 µM)
26 | COc1c(N2CC[C@H](N)C2)c(F)cc2c(=O)c3c(O)c(C#N)[nH]c3n(C3CC3)c12 [Cmp 28, (S)-7-(3-aminopyrrolidin-l-yl)-9-cyclopropyl-6-fluoro-3-hydroxyl-8-methoxy-4-oxo-4,9-dihydro-1H-pyrrolo[2,3-b]quinoline-2-carbonitrile] | 64 µg/mL (≈ 161 µM) | 

From patent US8173636B2, “Hydroxylthienoquinolones and related compounds as anti-infective agents” (Achillion Pharmaceuticals, Inc., priority 2009, dated 2012)
